Earlier results on three compounds are cited in patent US4535081A, “Antiallergic and antiulcer 1-oxo-1H-thiazolo[3,2-a]pyrimidine-2-carboxamides and intermediates therefor” (Pfizer Inc., priority 1983, dated 1985).

One data set has as its system bronchi. As to conditions: Cox et al., Adv. in Drug Res., 5, 115 (1970); cited from earlier work.
A further data set deals with allergic reactions. The following applies: cited from earlier work.
For the next data set, the system named is gastric ulcers. The following applies: literature; cited from earlier work.
The next data set deals with gastric acid secretion. The following applies: literature; cited from earlier work.

“Also recorded” adds a separate entry of the source. Like-named read-outs stand apart in the source and are kept apart here.

For `O=C(O)c1cc(=O)c2c(OCC(O)COc3cccc4oc(C(=O)O)cc(=O)c34)cccc2o1` [Intal, 1,3-bis(2-carboxycromon-5-yloxy)-2-hydroxypropane], the bronchodilator action result in the data set on bronchi is “not a bronchodilator”. For the same compound, the “activity by the oral route” value in the data set on allergic reactions is “lacks efficacy by the oral route; also recorded: not active by the oral route”; in the data set on allergic reactions (listed as disodium cromoglycate) it was “lack of oral efficacy”. In the case of `CC1(C)[C@@H](OC(=O)CCC(=O)O)CC[C@]2(C)[C@H]3C(=O)C=C4[C@@H]5C[C@@](C)(C(=O)O)CC[C@]5(C)CC[C@@]4(C)[C@]3(C)CC[C@@H]12` [carbenoxolone sodium], the “effect on gastric ulcers” value with gastric ulcers was “prevent formation of and to accelerate healing of gastric ulcers in animals, including humans”. As for `CN/C(=N/CCSCc1nc[nH]c1C)NC#N` [cimetidine], the “effect on ulcers / gastric acid secretion” value in the data set with gastric acid secretion is “alleviates ulcers by reducing gastric acid secretion”.
